Assay results from PubChem BioAssay (NCI).
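Cells were grown in 96-well plates and exposed to each compound for 48 hours at five concentrations; endpoints were interpolated linearly between bracketing concentrations, or set to the highest concentration if not reached. The concentration for 50% growth inhibition is given as GI50. TGI marks complete inhibition of growth.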

Legend:
Assay in all cases: NCI anticancer screen, dose series, 48 h
HCC-2998 colon = system: HCC-2998 colon
SNB-19 CNS = system: SNB-19 CNS
ACHN renal = system: ACHN renal
LOX IMVI melanoma = system: LOX IMVI melanoma
CAKI-1 renal = system: CAKI-1 renal
NCI-H522 lung = system: NCI-H522 lung
SF-295 CNS = system: SF-295 CNS
HS 578T breast = system: HS 578T breast
RPMI-8226 leukemia = system: RPMI-8226 leukemia
CCRF-CEM leukemia = system: CCRF-CEM leukemia
SK-MEL-2 melanoma = system: SK-MEL-2 melanoma
UO-31 renal = system: UO-31 renal
NCI/ADR-RES ovarian = system: NCI/ADR-RES ovarian
MCF7 breast = system: MCF7 breast
COLO 205 colon = system: COLO 205 colon
SW-620 colon = system: SW-620 colon
A498 renal = system: A498 renal
A549 NSCLC = system: A549 NSCLC
MDA-MB-231 breast = system: MDA-MB-231 breast
SR leukemia = system: SR leukemia
HCT-116 colon = system: HCT-116 colon
OVCAR-4 ovarian = system: OVCAR-4 ovarian
KM12 colon = system: KM12 colon
RXF 393 renal = system: RXF 393 renal
SF-268 CNS = system: SF-268 CNS
UACC-257 melanoma = system: UACC-257 melanoma
MDA-MB-435 = system: MDA-MB-435
MALME-3M melanoma = system: MALME-3M melanoma
NCI-H23 lung = system: NCI-H23 lung
SN12C renal = system: SN12C renal
NCI-H226 lung = system: NCI-H226 lung
786-0 renal = system: 786-0 renal
OVCAR-3 ovarian = system: OVCAR-3 ovarian
SK-MEL-5 melanoma = system: SK-MEL-5 melanoma
IGROV1 ovarian = system: IGROV1 ovarian
OVCAR-5 ovarian = system: OVCAR-5 ovarian
SNB-75 CNS = system: SNB-75 CNS
SK-MEL-28 melanoma = system: SK-MEL-28 melanoma
MOLT-4 leukemia = system: MOLT-4 leukemia
SK-OV-3 ovarian = system: SK-OV-3 ovarian
UACC-62 melanoma = system: UACC-62 melanoma
HCT-15 colon = system: HCT-15 colon
SF-539 CNS = system: SF-539 CNS
U251 CNS = system: U251 CNS
BT-549 breast = system: BT-549 breast
HL-60(TB) leukemia = system: HL-60(TB) leukemia
PC-3 prostate = system: PC-3 prostate
DU-145 prostate = system: DU-145 prostate
HOP-62 NSCLC = system: HOP-62 NSCLC
HOP-92 NSCLC = system: HOP-92 NSCLC
HT29 colon = system: HT29 colon
OVCAR-8 ovarian = system: OVCAR-8 ovarian
TK-10 renal = system: TK-10 renal
M14 melanoma = system: M14 melanoma
EKVX NSCLC = system: EKVX NSCLC
T-47D breast = system: T-47D breast
NCI-H460 lung = system: NCI-H460 lung

`CCC(=C/[C@H](C)C/C=C/C(C)=C/[C@@H](C)C(=O)[C@@H](C)[C@H](O)[C@@H](C)CC)/C=C/[C@@H]1OC(=O)C=C[C@@H]1C` was tested, and the GI50 (HCC-2998 colon) was under 0.005 µM, the TGI (HCC-2998 colon) was under 0.005 µM and the GI50 (SNB-19 CNS) was under 0.005 µM. It also gave a TGI (SNB-19 CNS) of 3.5 µM, a GI50 (ACHN renal) of under 0.005 µM and a TGI (ACHN renal) of 6.29 µM. It also gave a GI50 (LOX IMVI melanoma) of under 0.005 µM, a TGI (LOX IMVI melanoma) of 0.584 µM and a GI50 (CAKI-1 renal) of under 0.005 µM. It also gave a TGI (CAKI-1 renal) of 8.53 µM, a GI50 (NCI-H522 lung) of under 0.005 µM and a TGI (NCI-H522 lung) of 0.0817 µM. For the same compound, the GI50 (SF-295 CNS) was under 0.005 µM, the TGI (SF-295 CNS) was 7.49 µM and the GI50 (HS 578T breast) was under 0.005 µM. It also gave a TGI (HS 578T breast) of 2.45 µM, a GI50 (RPMI-8226 leukemia) of under 0.005 µM and a TGI (RPMI-8226 leukemia) of under 0.005 µM. For the same compound, the GI50 (CCRF-CEM leukemia) was under 0.005 µM, the TGI (CCRF-CEM leukemia) was 1.8 µM and the GI50 (SK-MEL-2 melanoma) was under 0.005 µM. For the same compound, the TGI (SK-MEL-2 melanoma) was 3.03 µM, the GI50 (UO-31 renal) was under 0.005 µM and the TGI (UO-31 renal) was 0.214 µM. The GI50 (NCI/ADR-RES ovarian) was under 0.005 µM, the TGI (NCI/ADR-RES ovarian) was 1.37 µM and the GI50 (MCF7 breast) was under 0.005 µM. The TGI (MCF7 breast) was 0.158 µM, the GI50 (COLO 205 colon) was under 0.005 µM and the TGI (COLO 205 colon) was under 0.005 µM. It also gave a GI50 (SW-620 colon) of under 0.005 µM, a TGI (SW-620 colon) of 3.18 µM and a GI50 (A498 renal) of under 0.005 µM. It also gave a TGI (A498 renal) of under 0.005 µM, a GI50 (A549 NSCLC) of under 0.005 µM and a TGI (A549 NSCLC) of 7.02 µM. It also gave a GI50 (MDA-MB-231 breast) of under 0.005 µM, a TGI (MDA-MB-231 breast) of 4.64 µM and a GI50 (SR leukemia) of under 0.005 µM. For the same compound, the TGI (SR leukemia) was 0.219 µM, the GI50 (HCT-116 colon) was under 0.005 µM and the TGI (HCT-116 colon) was under 0.005 µM. For the same compound, the GI50 (OVCAR-4 ovarian) was under 0.005 µM, the TGI (OVCAR-4 ovarian) was 6.66 µM and the GI50 (KM12 colon) was under 0.005 µM. It also gave a TGI (KM12 colon) of 5.17 µM, a GI50 (RXF 393 renal) of under 0.005 µM and a TGI (RXF 393 renal) of 0.0711 µM. It also gave a GI50 (SF-268 CNS) of under 0.005 µM, a TGI (SF-268 CNS) of 2.19 µM and a GI50 (UACC-257 melanoma) of under 0.005 µM. For the same compound, the TGI (UACC-257 melanoma) was 8.9 µM, the GI50 (MDA-MB-435) was under 0.005 µM and the TGI (MDA-MB-435) was under 0.005 µM. The GI50 (MALME-3M melanoma) was under 0.005 µM, the TGI (MALME-3M melanoma) was 0.253 µM and the GI50 (NCI-H23 lung) was under 0.005 µM. It also gave a TGI (NCI-H23 lung) of 4.29 µM, a GI50 (SN12C renal) of under 0.005 µM and a TGI (SN12C renal) of 4.32 µM. For the same compound, the GI50 (NCI-H226 lung) was under 0.005 µM, the TGI (NCI-H226 lung) was under 0.005 µM and the GI50 (786-0 renal) was under 0.005 µM. For the same compound, the TGI (786-0 renal) was under 0.005 µM, the GI50 (OVCAR-3 ovarian) was under 0.005 µM and the TGI (OVCAR-3 ovarian) was 6.3 µM. For the same compound, the GI50 (SK-MEL-5 melanoma) was under 0.005 µM, the TGI (SK-MEL-5 melanoma) was under 0.005 µM and the GI50 (IGROV1 ovarian) was 0.0926 µM. For the same compound, the TGI (IGROV1 ovarian) was 7.88 µM, the GI50 (OVCAR-5 ovarian) was under 0.005 µM and the TGI (OVCAR-5 ovarian) was 4.74 µM. For the same compound, the GI50 (SNB-75 CNS) was under 0.005 µM, the TGI (SNB-75 CNS) was 0.0773 µM and the GI50 (SK-MEL-28 melanoma) was under 0.005 µM. For the same compound, the TGI (SK-MEL-28 melanoma) was 0.0757 µM, the GI50 (MOLT-4 leukemia) was under 0.005 µM and the TGI (MOLT-4 leukemia) was under 0.005 µM. It also gave a GI50 (SK-OV-3 ovarian) of under 0.005 µM, a TGI (SK-OV-3 ovarian) of 6.5 µM and a GI50 (UACC-62 melanoma) of under 0.005 µM. The TGI (UACC-62 melanoma) was 0.243 µM, the GI50 (HCT-15 colon) was under 0.005 µM and the TGI (HCT-15 colon) was 0.409 µM. The GI50 (SF-539 CNS) was under 0.005 µM, the TGI (SF-539 CNS) was under 0.005 µM and the GI50 (U251 CNS) was under 0.005 µM. It also gave a TGI (U251 CNS) of 2.06 µM, a GI50 (BT-549 breast) of under 0.005 µM and a TGI (BT-549 breast) of under 0.005 µM. For the same compound, the GI50 (HL-60(TB) leukemia) was under 0.005 µM, the TGI (HL-60(TB) leukemia) was under 0.005 µM and the GI50 (PC-3 prostate) was under 0.005 µM. For the same compound, the TGI (PC-3 prostate) was 5.94 µM, the GI50 (DU-145 prostate) was under 0.005 µM and the TGI (DU-145 prostate) was 5.71 µM. The GI50 (HOP-62 NSCLC) was under 0.005 µM, the TGI (HOP-62 NSCLC) was 0.874 µM and the GI50 (HOP-92 NSCLC) was under 0.005 µM. It also gave a TGI (HOP-92 NSCLC) of under 0.005 µM, a GI50 (HT29 colon) of under 0.005 µM and a TGI (HT29 colon) of 5.31 µM. For the same compound, the GI50 (OVCAR-8 ovarian) was under 0.005 µM, the TGI (OVCAR-8 ovarian) was 6.16 µM and the GI50 (TK-10 renal) was under 0.005 µM. The TGI (TK-10 renal) was 10.7 µM, the GI50 (M14 melanoma) was under 0.005 µM and the TGI (M14 melanoma) was under 0.005 µM. For the same compound, the GI50 (EKVX NSCLC) was under 0.005 µM, the TGI (EKVX NSCLC) was 8.33 µM and the GI50 (T-47D breast) was under 0.005 µM. For the same compound, the TGI (T-47D breast) was 6.18 µM, the GI50 (NCI-H460 lung) was under 0.005 µM and the TGI (NCI-H460 lung) was 0.0533 µM.
